Laboratory results taken from patent publication US20050238706A1, “Pharmaceutically active lipid based formulation of SN-38” (NeoPharm, Inc., priority 2002, published 2005).

Experiments:
[1] = tested on: topoisomerase I purified from human and rodent tumor cell lines; details: enzyme purified from human and rodent tumor cell lines; cited from earlier work
[2] = cited from earlier work
[3] = tested on: Capan-1 human pancreatic cancer cells; assay: Therapeutic efficacy in Capan-1 xenograft, SCID mice; type: in vivo; details: day 28 post treatment, n = 5
From the text: (§1) Either female CD2F1 (6-8 weeks old) mice or female C.B-17 SCID mice (4-6 weeks old) were obtained from the vendor and maintained as described previously. The CD2F1 mice were transplanted with P388 murine leukemia tumor cells, whereas the SCID mice were transplanted with HT-29 human colon cancer cells, Capan-1 human pancreatic cancer cells and MX-1 human breast cancer cells. After a suitable waiting period (waiting period varied based on the tumor models), each mouse received intravenous injection via tail vein of placebo liposomes, LE-SN38 or CPT-11 at pre-determined dose levels.

[4] = tested on: HT-29 human colon cancer cells; assay: Therapeutic efficacy in HT-29 xenograft, SCID mice; type: in vivo; details: 8 mg/kg × 5, iv, day 28 post treatment, n = 5
From the text: as §1

[5] = tested on: P388 murine leukemia tumor cells; assay: Therapeutic efficacy in P388 tumor bearing CD2F1 mice; type: in vivo, mouse; details: for 60-day % Survival: n = 10
From the text: as §1

Row | Compound | potency as an inhibitor of topoisomerase I relative to irinotecan [1] | solubility in aqueous solutions [2] | % Growth Inhibition ([3]; 8 mg/kg × 5, iv) [%] | % Growth Inhibition ([3]; 16 mg/kg × 5, iv) [%] | % Growth Inhibition [4] [%] | median survival time ([5]; 4 mg/kg for 5 consecutive days) [days] | 60-day % Survival ([5]; 4 mg/kg × 5, iv) [%] | median survival time ([5]; 8 mg/kg for 5 consecutive days) [days] | 60-day % Survival ([5]; 8 mg/kg × 5, iv) [%] | median survival time ([5]; 16 mg/kg for 5 consecutive days) [days]
1 | CCc1c2c(nc3ccc(O)cc13)-c1cc3c(c(=O)n1C2)COC(=O)[C@]3(O)CC [SN38, (+)-(4S)-4,11-diethyl-4,9-dihydroxy-1H-pyrano[3′,4′:6,7]-indolizino[1,2-b]quinoline-3,14(4H,12H)-dione] | approximately 1000 times | exceedingly insoluble |  |  |  |  |  |  |  | 
2 | CCc1c2c(nc3ccc(OC(=O)N4CCC(N5CCCCC5)CC4)cc13)-c1cc3c(c(=O)n1C2)COC(=O)[C@]3(O)CC [CPT-11, irinotecan] |  |  | 47.8 | 68.7 | 36 | 16 | 0 | 20 | 0 | 22
